Where two headings read alike, the source gives them in different places.
How the values were obtained:
recombinant agAP-AChE [1] = biological target: T1, recombinant agAP-AChE (Anopheles gambiae, UniProt Q869C3); assay: Time-course and dilution experiments of AChE inhibition; type: biochemical, Anopheles gambiae sensu stricto; conditions: for inhibition at 50 µM: read-out: inhibition of the enzyme activity, agAP-AChE, 50 μM NEM
recombinant hAChE = recombinant hAChE (Homo sapiens, UniProt P22303); assay: as above; type: biochemical
recombinant agAP-AChE [2] = biological target: T1, recombinant agAP-AChE; assay: biochemical; parameters: species or system Anopheles gambiae sensu stricto
recombinant agAP-AChE [3] = biological target: T1, recombinant agAP-AChE; type: biochemical, Anopheles gambiae sensu stricto; conditions: ≤15 min, paraoxon 333–2000 nM

Sequence of recombinant hAChE (P22303 32-614): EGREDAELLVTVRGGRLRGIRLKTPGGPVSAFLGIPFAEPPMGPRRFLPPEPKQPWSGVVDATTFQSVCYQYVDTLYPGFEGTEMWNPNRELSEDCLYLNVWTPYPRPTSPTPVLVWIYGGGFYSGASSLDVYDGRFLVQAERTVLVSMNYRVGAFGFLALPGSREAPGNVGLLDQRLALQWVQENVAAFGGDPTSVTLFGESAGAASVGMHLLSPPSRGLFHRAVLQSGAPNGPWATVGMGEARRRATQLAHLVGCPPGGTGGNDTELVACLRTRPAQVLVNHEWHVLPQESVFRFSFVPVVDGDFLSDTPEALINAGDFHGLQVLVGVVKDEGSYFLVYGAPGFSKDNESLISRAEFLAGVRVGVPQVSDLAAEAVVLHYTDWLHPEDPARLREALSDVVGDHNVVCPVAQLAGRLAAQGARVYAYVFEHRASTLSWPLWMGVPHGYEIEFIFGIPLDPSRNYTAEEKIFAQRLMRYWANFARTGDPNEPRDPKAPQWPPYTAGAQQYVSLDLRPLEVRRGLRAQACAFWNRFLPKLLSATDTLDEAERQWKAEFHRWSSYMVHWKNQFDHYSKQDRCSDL
T1 sequence (Q869C3 39-737): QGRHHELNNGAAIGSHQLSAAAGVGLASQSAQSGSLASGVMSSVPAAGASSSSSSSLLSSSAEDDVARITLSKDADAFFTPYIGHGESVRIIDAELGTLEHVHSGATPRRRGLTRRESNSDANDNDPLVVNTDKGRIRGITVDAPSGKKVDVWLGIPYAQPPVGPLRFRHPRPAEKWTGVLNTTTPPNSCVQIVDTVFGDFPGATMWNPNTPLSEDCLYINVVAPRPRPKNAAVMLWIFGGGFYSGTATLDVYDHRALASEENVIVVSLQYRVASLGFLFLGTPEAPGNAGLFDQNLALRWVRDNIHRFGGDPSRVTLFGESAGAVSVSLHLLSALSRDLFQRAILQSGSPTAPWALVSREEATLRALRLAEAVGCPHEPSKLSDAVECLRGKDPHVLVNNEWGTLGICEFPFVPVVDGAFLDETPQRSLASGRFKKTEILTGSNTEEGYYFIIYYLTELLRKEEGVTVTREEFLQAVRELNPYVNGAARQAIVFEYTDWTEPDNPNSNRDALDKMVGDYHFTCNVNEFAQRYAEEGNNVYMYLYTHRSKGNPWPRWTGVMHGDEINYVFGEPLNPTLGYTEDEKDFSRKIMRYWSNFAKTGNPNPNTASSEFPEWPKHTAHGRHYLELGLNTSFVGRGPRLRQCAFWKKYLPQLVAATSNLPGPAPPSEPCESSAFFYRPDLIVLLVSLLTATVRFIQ

| SMILES | irreversible inhibition (time-course and dilution experiments) (recombinant agAP-AChE [1]; agAP-AChE) | Ki (recombinant agAP-AChE [2]) [nM] | irreversible inhibition (time-course and dilution experiments) (recombinant hAChE) | also measured |
| --- | --- | --- | --- | --- |
| CCN1C(=O)CCC1=O [1-ethylpyrrolidine-2,5-dione, reference compound] |  |  |  | irreversible or reversible inhibition (recombinant agAP-AChE [1]; agAP-AChE, inhibitor concentrations up to 10 mM, data not shown): did not irreversibly or reversibly inhibit; irreversible or reversible inhibition (recombinant hAChE; inhibitor concentrations up to 10 mM, data not shown): did not irreversibly or reversibly inhibit |
| CCN1C(=O)C=CC1=O [NEM, N-ethylmaleimide, reference compound] | inability of NEM to irreversibly inhibit agAP-AChE |  |  | inhibition at 50 µM (recombinant agAP-AChE [1]; 30 minutes): 40 ± 1%; inhibition at 50 µM (recombinant agAP-AChE [1]; immediately): 36 ± 2% |
| O=C1C=CC(=O)N1CCCCCCCCCCCCCCCCCCCC[n+]1ccccc1.[Br-] [PM20, 1-(20-(2,5-Dioxo-2,5-dihydro-1H-pyrrol-1-yl)eicosyl)pyridinium bromide] | irreversibly inhibited agAP-AChE | 400 | not hAChE | kinact/KI fold higher than that of paraoxon (recombinant agAP-AChE [3]): 239 fold; decrease of the enzyme activity (recombinant agAP-AChE [1]; agAP-AChE, combination of 50 μM NEM and 6.7 nM PM20 for 30 minutes): 94 ± 3%; inhibition at 0.0067 µM (recombinant agAP-AChE [1]; read-out: enzyme activity inhibited, agAP-AChE, incubated with 50 μM NEM, then treated with 6.7 nM PM20 for 30 minutes): 96 ± 4% |
| O=C([O-])C(F)(F)F.O=C1CCC(=O)N1CCCCCCCCCCCCCCCCCCCC[n+]1ccccc1 [PMS20, 1-(20-(2,5-Dioxopyrrolidin-1-yl)eicosyl)pyridin-1-ium 2,2,2-trifluoroacetate] | irreversibly inhibited neither | 420 | irreversibly inhibited neither |  |
| Cl.O=C1C=CC(=O)N1CCCCCCCCCCCCCCCCCCN1CCCCC1 [PY18, 1-(18-(Piperidin-1-yl)octadecyl)-1H-pyrrole-2,5-dione hydrochloride] | irreversibly inhibited agAP-AChE |  | not hAChE |  |
| Cl.O=C1CCC(=O)N1CCCCCCCCCCCCCCCCCCN1CCCCC1 [PYS18, 1-(18-(Piperidin-1-yl)octadecyl)pyrrolidine-2,5-dione hydrochloride] | irreversibly inhibited neither | 26200 | irreversibly inhibited neither |  |
| CCOP(=O)(OCC)Oc1ccc([N+](=O)[O-])cc1 [Paraoxon, paraoxon, reference compound] | irreversibly inhibited both enzymes |  | irreversibly inhibited both enzymes |  |
